Laboratory results published in US20030057401A1, “Inhibitor compositions” (priority 1999, published 2003).

System: sessile SRB colonies
Experiment: Experiment 4: biocidal efficacy for planktonic and sessile bacteria, studs from Robins device, 3 hr contact
Assay type: cell-based, Sulphate Reducing Bacteria (SRB)
Settings: if it can penetrate the glycocalyx
Method: The purpose of killing planktonic SRB is to prevent the formation of sessile SRB colonies. A series of tests has been conducted in which viable sessile cultures have been treated with a range of biocides. Synthetic Seawater [table] Additional nutrients were added to water to encourage bacteria growth. Experiment 4 is a comparison of biocidal efficacy for planktonic and sessile bacteria. Viable SRB colonies are established on studs in a Robins device. The studs are removed, washed in sterile sea water and treated with solutions containing the test biocide. After exposures of 1, 3, 4, 8 or extended periods, coupons are rinsed, scraped and suspended in fresh synthetic sea water. Serial dilutions and ATP analyses are conducted on the samples to determine bacterial activity.

## O=CCCCC=O [glutaraldehyde]
  comparative biocidal efficacy on sessile SRB colonies: more effective biocide than quaternary amines
